Measurements as given in patent US20080138835A1 (priority 2004, published 2008).
In brackets after ≈: the same amount, converted by molar mass. Read-outs that look alike come from different tables or passages of the source.

How the values were obtained:
S. aureus RN4220 = experiment: microbe, parasite or virus in culture; format: cell-based; settings: for MIC: Staphylococcus aureus
S. aureus [1] = experiment: microbe, parasite or virus in culture; format: cell-based; settings: for MIC: Staphylococcus aureus
S. aureus [2] = format: cell-based
S. aureus [3] = experiment: microbe, parasite or virus in culture; format: cell-based; settings: Staphylococcus aureus
[4] = tested on: staphylococci and streptococci; experiment: organism not typed; format: cell-based
S. aureus mutants = experiment: microbe, parasite or virus in culture; format: cell-based; settings: Staphylococcus aureus, ATCC43300
S. aureus MetS = S. aureus MetS (Staphylococcus aureus, UniProt P67579); experiment: biochemical
H influenzae MetG = H influenzae MetG (Haemophilus influenzae, UniProt P43828); experiment: biochemical
E. coli MetG = E. coli MetG (Escherichia coli, UniProt P00959); experiment: biochemical
S. pneumoniae MetS2 = S. pneumoniae MetS2 (Streptococcus pneumoniae, UniProt A2MSJ4); experiment: biochemical
staphylococci = settings: cited from earlier work
[5] = RN4220, pYH4 vector control, +aTc inducer
[6] = RN4220, pYH4 vector control, −aTc inducer
[7] = 1079077 (MRSA), 10^10 CFU, five days
[8] = ATCC 29213 (MSSA), 10^10 CFU, five days
[9] = ATCC 43300 (MRSA), 10^10 CFU, five days
[10] = LZ10 (MRSA), 10^10 CFU, five days
[11] = S. aureus, including MSSA and MRSA strains
[12] = ATCC 29213 / MSSA, read-out: MIC After 20 passages, S. aureus ATCC29213, MSSA, MupS
[13] = ATCC 29213 / MSSA, read-out: MIC Initial, S. aureus ATCC29213, MSSA, MupS
[14] = ATCC 43300 / MRSA, read-out: MIC After 20 passages, S. aureus ATCC43300, MRSA, MupS
[15] = MRSA / NRS 103, read-out: MIC After 20 passages, S. aureus NRS103, MRSA, MupS
[16] = MRSA / NRS 103, read-out: MIC Initial, S. aureus NRS103, MRSA, MupS
[17] = MRSA, read-out: MIC After 20 passages, S. aureus 10-420, MRSA, HL-MupR
[18] = MRSA, read-out: MIC After 20 passages, S. aureus 25-670, MRSA, HL-MupR
[19] = MRSA, read-out: MIC After 20 passages, S. aureus 31-1334, MRSA, LL-MupR
[20] = MRSA, read-out: MIC After 20 passages, S. aureus 87-2797, MRSA, HL-MupR
[21] = MRSA, read-out: MIC After 20 passages, S. aureus 1079077, MRSA, MupS
[22] = MRSA, read-out: MIC After 20 passages, S. aureus LZ1, MRSA, HL-MupR
[23] = MRSA, read-out: MIC After 20 passages, S. aureus LZ6, MRSA, HL-MupR
[24] = MRSA, read-out: MIC After 20 passages, S. aureus LZ10, MRSA, MupS
[25] = MRSA, read-out: MIC Initial, S. aureus 10-420, MRSA, HL-MupR
[26] = MRSA, read-out: MIC Initial, S. aureus 25-670, MRSA, HL-MupR
[27] = MRSA, read-out: MIC Initial, S. aureus 31-1334, MRSA, LL-MupR
[28] = MRSA, read-out: MIC Initial, S. aureus 87-2797, MRSA, HL-MupR
[29] = MRSA, read-out: MIC Initial, S. aureus 1079077, MRSA, MupS
[30] = MRSA, read-out: MIC Initial, S. aureus LZ1, MRSA, HL-MupR
[31] = MRSA, read-out: MIC Initial, S. aureus LZ6, MRSA, HL-MupR
[32] = MRSA, read-out: MIC Initial, S. aureus LZ10, MRSA, MupS
[33] = MSSA / NRS 107, read-out: MIC After 20 passages, S. aureus NRS107, MSSA, HL-MupR
[34] = MSSA / NRS 107, read-out: MIC Initial, S. aureus NRS107, MSSA, HL-MupR
[35] = MSSA, read-out: MIC After 20 passages, S. aureus 1079101, MSSA, HL-MupR
[36] = MSSA, read-out: MIC Initial, S. aureus 1079101, MSSA, HL-MupR

Sequence of S. pneumoniae MetS2 (A2MSJ4 1-545): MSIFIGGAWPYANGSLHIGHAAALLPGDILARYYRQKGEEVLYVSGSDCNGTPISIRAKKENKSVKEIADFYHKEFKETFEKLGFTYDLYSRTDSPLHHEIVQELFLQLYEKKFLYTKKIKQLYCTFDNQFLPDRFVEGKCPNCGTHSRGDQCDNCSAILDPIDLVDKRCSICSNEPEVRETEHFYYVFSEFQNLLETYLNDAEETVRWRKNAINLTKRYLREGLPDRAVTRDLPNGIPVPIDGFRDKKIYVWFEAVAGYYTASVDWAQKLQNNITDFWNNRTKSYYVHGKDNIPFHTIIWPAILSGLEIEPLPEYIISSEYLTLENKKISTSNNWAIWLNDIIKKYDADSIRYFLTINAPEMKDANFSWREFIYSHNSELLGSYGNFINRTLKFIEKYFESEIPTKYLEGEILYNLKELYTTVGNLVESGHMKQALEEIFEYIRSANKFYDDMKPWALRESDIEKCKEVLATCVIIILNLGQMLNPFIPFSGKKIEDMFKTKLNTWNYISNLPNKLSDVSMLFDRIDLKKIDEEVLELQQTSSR
Sequence of S. aureus MetS (P67579 whole entry): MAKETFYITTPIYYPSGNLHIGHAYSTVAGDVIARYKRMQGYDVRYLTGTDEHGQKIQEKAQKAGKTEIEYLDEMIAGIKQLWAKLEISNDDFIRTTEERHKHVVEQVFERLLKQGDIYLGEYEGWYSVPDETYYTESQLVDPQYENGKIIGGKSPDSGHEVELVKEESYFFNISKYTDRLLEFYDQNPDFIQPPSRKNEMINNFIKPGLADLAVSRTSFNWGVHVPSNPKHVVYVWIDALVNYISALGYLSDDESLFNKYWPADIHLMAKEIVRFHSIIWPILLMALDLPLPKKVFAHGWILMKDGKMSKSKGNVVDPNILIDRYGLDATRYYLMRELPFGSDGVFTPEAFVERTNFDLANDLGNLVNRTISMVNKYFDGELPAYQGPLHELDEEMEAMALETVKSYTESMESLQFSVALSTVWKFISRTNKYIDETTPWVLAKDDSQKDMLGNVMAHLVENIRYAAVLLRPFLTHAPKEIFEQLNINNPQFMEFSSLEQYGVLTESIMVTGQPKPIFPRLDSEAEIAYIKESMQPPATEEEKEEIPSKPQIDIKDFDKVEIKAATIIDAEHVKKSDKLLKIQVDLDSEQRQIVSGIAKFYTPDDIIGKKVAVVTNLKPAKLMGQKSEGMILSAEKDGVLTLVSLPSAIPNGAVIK
Sequence of E. coli MetG (P00959 whole entry, looked up): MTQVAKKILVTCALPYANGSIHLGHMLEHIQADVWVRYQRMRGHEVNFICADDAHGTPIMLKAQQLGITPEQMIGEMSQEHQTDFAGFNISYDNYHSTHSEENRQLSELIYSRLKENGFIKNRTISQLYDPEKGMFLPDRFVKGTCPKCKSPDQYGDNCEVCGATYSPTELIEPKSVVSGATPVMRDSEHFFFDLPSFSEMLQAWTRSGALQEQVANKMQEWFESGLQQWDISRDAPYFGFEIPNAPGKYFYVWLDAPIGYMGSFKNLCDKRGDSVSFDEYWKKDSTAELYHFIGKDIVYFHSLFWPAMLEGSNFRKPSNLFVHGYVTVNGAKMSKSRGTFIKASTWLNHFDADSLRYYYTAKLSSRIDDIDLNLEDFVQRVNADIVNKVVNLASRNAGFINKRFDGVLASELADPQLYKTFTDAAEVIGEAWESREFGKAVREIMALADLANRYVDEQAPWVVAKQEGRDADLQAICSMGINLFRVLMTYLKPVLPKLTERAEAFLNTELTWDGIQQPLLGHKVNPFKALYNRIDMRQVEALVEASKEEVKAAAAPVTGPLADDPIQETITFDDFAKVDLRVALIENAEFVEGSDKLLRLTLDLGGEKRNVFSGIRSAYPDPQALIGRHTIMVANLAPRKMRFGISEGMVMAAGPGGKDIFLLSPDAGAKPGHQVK
Sequence of H influenzae MetG (P43828 whole entry): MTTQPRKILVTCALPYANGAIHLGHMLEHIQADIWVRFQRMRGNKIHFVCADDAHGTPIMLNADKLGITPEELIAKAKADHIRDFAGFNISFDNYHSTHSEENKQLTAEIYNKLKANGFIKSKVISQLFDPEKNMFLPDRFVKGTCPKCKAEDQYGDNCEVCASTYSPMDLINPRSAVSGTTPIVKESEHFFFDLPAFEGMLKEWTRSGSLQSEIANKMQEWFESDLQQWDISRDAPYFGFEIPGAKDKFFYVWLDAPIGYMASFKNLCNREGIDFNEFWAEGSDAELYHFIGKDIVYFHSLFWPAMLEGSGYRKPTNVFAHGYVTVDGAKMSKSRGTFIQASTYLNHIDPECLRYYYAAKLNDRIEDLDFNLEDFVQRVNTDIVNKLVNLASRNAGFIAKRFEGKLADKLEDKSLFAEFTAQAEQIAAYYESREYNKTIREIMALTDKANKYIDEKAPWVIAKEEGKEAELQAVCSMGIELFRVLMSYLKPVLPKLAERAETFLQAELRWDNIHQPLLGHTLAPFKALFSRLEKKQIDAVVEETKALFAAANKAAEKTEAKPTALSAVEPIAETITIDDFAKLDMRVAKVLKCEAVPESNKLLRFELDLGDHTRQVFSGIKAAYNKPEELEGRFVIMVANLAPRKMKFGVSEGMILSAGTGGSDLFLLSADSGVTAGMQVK

CO[C@@H]1[C@@H](OC(N)=O)[C@@H](O)[C@H](Oc2ccc3c(O)c(NC(=O)c4ccc(O)c(CC=C(C)C)c4)c(=O)oc3c2C)OC1(C)C [Novobiocin]
MIC change upon MRS overexpression (S. aureus RN4220): remained unchanged
MIC (S. aureus RN4220; RN4220, pYH4-MRS, +aTc inducer): 0.25 µg/mL (≈ 0.408 µM)
MIC (S. aureus RN4220; RN4220, pYH4-MRS, −aTc inducer): 0.25 µg/mL (≈ 0.408 µM)
MIC (S. aureus RN4220; [5]): 0.25 µg/mL (≈ 0.408 µM)
MIC (S. aureus RN4220; [6]): 0.25 µg/mL (≈ 0.408 µM)

C=C(F)c1sc(CNCCCNc2cc(=O)c3ccccc3[nH]2)c(C)c1Br [Compound 1, N-(4-bromo-5-(1-fluorovinyl)-3-methylthiophen-2-ylmethyl)-N′-(1H-quinolin-4-one)propane-1,3-diamine]
shift in the MIC upon induction of MRS expression (S. aureus RN4220; RN4220 (pYH4-MRS)): 8 fold
MIC (S. aureus RN4220; RN4220, pYH4-MRS, +aTc inducer): 1 µg/mL (≈ 2.22 µM)
MIC (S. aureus RN4220; RN4220, pYH4-MRS, −aTc inducer): 0.12 µg/mL (≈ 0.266 µM)
MIC (S. aureus RN4220; [5]): 0.008 µg/mL (≈ 0.0178 µM)
MIC (S. aureus RN4220; [6]): 0.008 µg/mL (≈ 0.0178 µM)
initial MIC range (S. aureus [1]): 0.03 to 0.5 µg/mL
MIC (S. aureus [1]): 0.5 µg/mL (≈ 1.11 µM)
MIC (S. aureus [1]; ATCC 29213 / MSSA): 0.03 µg/mL (≈ 0.0666 µM)
MIC (S. aureus [1]; ATCC 43300 / MRSA): 0.06 µg/mL (≈ 0.133 µM)
MPC (S. aureus [2]; [7]): 32 µg/mL
MPC (S. aureus [2]; [8]): 32 µg/mL
MPC (S. aureus [2]; [9]): 32 µg/mL
MPC (S. aureus [2]; [10]): 32 µg/mL
MPC (S. aureus [2]; [11]): 32 µg/mL
MIC (S. aureus [3]; [12]): 4 µg/mL (≈ 8.88 µM)
MIC (S. aureus [3]; [13]): 0.06 µg/mL (≈ 0.133 µM)
MIC (S. aureus [3]; [14]): 1 µg/mL (≈ 2.22 µM)
MIC (S. aureus [3]; [15]): 1 µg/mL (≈ 2.22 µM)
MIC (S. aureus [3]; [16]): 0.12 µg/mL (≈ 0.266 µM)
MIC (S. aureus [3]; [17]): 8 µg/mL (≈ 17.8 µM)
MIC (S. aureus [3]; [18]): 8 µg/mL (≈ 17.8 µM)
MIC (S. aureus [3]; [19]): 8 µg/mL (≈ 17.8 µM)
MIC (S. aureus [3]; [20]): 16 µg/mL (≈ 35.5 µM)
MIC (S. aureus [3]; [21]): 16 µg/mL (≈ 35.5 µM)
MIC (S. aureus [3]; [22]): 0.06 µg/mL (≈ 0.133 µM)
MIC (S. aureus [3]; [23]): 2 µg/mL (≈ 4.44 µM)
MIC (S. aureus [3]; [24]): 0.5 µg/mL (≈ 1.11 µM)
MIC (S. aureus [3]; [25]): 0.06 µg/mL (≈ 0.133 µM)
MIC (S. aureus [3]; [26]): 0.06 µg/mL (≈ 0.133 µM)
MIC (S. aureus [3]; [27]): 0.03 µg/mL (≈ 0.0666 µM)
MIC (S. aureus [3]; [28]): 0.03 µg/mL (≈ 0.0666 µM)
MIC (S. aureus [3]; [29]): 0.25 µg/mL (≈ 0.555 µM)
MIC (S. aureus [3]; [30]): 0.06 µg/mL (≈ 0.133 µM)
MIC (S. aureus [3]; [31]): 0.06 µg/mL (≈ 0.133 µM)
MIC (S. aureus [3]; [32]): 0.03 µg/mL (≈ 0.0666 µM)
MIC (S. aureus [3]; [33]): 0.5 µg/mL (≈ 1.11 µM)
MIC (S. aureus [3]; [34]): 0.015 µg/mL (≈ 0.0333 µM)
MIC (S. aureus [3]; [35]): 16 µg/mL (≈ 35.5 µM)
MIC (S. aureus [3]; [36]): 0.06 µg/mL (≈ 0.133 µM)
MIC range after twenty serial passages ([4]; strains of Table 4): 0.06 to 16 µg/mL
MIC initial range ([4]; strains of Table 4, before passages): 0.015 to 0.06 µg/mL
MIC (S. aureus mutants): 2 µg/mL (≈ 4.44 µM)
IC50 (S. aureus MetS): < 1.9 nM
IC50 (H influenzae MetG): 25 nM
IC50 (E. coli MetG): 307 nM
IC50 (S. pneumoniae MetS2): > 500 nM

C/C(=C\C(=O)OCCCCCCCCC(=O)O)C[C@@H]1OC[C@H](C[C@@H]2O[C@H]2[C@@H](C)[C@H](C)O)[C@@H](O)[C@H]1O [Mupirocin]
MIC change upon MRS overexpression (S. aureus RN4220): remained unchanged
MIC (S. aureus RN4220; RN4220, pYH4-MRS, +aTc inducer): 0.06 µg/mL (≈ 0.12 µM)
MIC (S. aureus RN4220; RN4220, pYH4-MRS, −aTc inducer): 0.06 µg/mL (≈ 0.12 µM)
MIC (S. aureus RN4220; [5]): 0.06 µg/mL (≈ 0.12 µM)
MIC (S. aureus RN4220; [6]): 0.06 µg/mL (≈ 0.12 µM)
MIC (S. aureus [1]; ATCC 29213 / MSSA): 0.12 µg/mL (≈ 0.24 µM)
MIC (S. aureus [1]; ATCC 43300 / MRSA): 0.12 µg/mL (≈ 0.24 µM)
MPC (S. aureus [2]; [7]): >32 µg/mL
MPC (S. aureus [2]; [8]): 32 µg/mL
MPC (S. aureus [2]; [9]): 32 µg/mL
MPC (S. aureus [2]; [10]): >32 µg/mL
MPC (S. aureus [2]; [11]): ≥ 32 µg/mL
MIC (S. aureus [3]; [12]): 0.5 µg/mL (≈ 0.999 µM)
MIC (S. aureus [3]; [13]): 0.06 µg/mL (≈ 0.12 µM)
MIC (S. aureus [3]; [14]): 8 µg/mL (≈ 16 µM)
MIC (S. aureus [3]; ATCC 43300 / MRSA, read-out: MIC Initial, S. aureus ATCC43300, MRSA, MupS): 0.06 µg/mL (≈ 0.12 µM)
MIC (S. aureus [3]; [15]): 1 µg/mL (≈ 2 µM)
MIC (S. aureus [3]; [16]): 0.25 µg/mL (≈ 0.499 µM)
MIC (S. aureus [3]; [17]): 4100 µg/mL (≈ 8180 µM)
MIC (S. aureus [3]; [18]): 4100 µg/mL (≈ 8180 µM)
MIC (S. aureus [3]; [19]): 128 µg/mL (≈ 256 µM)
MIC (S. aureus [3]; [20]): 4100 µg/mL (≈ 8180 µM)
MIC (S. aureus [3]; [21]): 1 µg/mL (≈ 2 µM)
MIC (S. aureus [3]; [22]): 4100 µg/mL (≈ 8180 µM)
MIC (S. aureus [3]; [23]): 4100 µg/mL (≈ 8180 µM)
MIC (S. aureus [3]; [24]): 2 µg/mL (≈ 3.99 µM)
MIC (S. aureus [3]; [25]): 4100 µg/mL (≈ 8180 µM)
MIC (S. aureus [3]; [26]): 2050 µg/mL (≈ 4090 µM)
MIC (S. aureus [3]; [27]): 32 µg/mL (≈ 63.9 µM)
MIC (S. aureus [3]; [28]): 2050 µg/mL (≈ 4090 µM)
MIC (S. aureus [3]; [29]): 0.5 µg/mL (≈ 0.999 µM)
MIC (S. aureus [3]; [30]): 4100 µg/mL (≈ 8180 µM)
MIC (S. aureus [3]; [31]): 4100 µg/mL (≈ 8180 µM)
MIC (S. aureus [3]; [32]): 0.25 µg/mL (≈ 0.499 µM)
MIC (S. aureus [3]; [33]): 4100 µg/mL (≈ 8180 µM)
MIC (S. aureus [3]; [34]): 4100 µg/mL (≈ 8180 µM)
MIC (S. aureus [3]; [35]): 4100 µg/mL (≈ 8180 µM)
MIC (S. aureus [3]; [36]): 4100 µg/mL (≈ 8180 µM)
MIC range after 20 passages ([4]; mupirocin-susceptible strains): 0.5 to 8 µg/mL
MIC range initial ([4]; mupirocin-susceptible strains): 0.06 to 0.5 µg/mL
MIC ([4]; read-out: MIC after 20 passages): 128 µg/mL (≈ 256 µM)
MIC ([4]; read-out: MIC initial): 32 µg/mL (≈ 63.9 µM)
MIC (staphylococci; high-level mupirocin resistance): > 256 µg/mL
MIC (staphylococci; low-level mupirocin resistance): 8 to 256 µg/mL

CN[C@H](CC(C)C)C(=O)N[C@H]1C(=O)N[C@@H](CC(N)=O)C(=O)N[C@H]2C(=O)N[C@H]3C(=O)N[C@H](C(=O)N[C@H](C(=O)O)c4cc(O)cc(O)c4-c4cc3ccc4O)[C@H](O)c3ccc(c(Cl)c3)Oc3cc2cc(c3O[C@@H]2O[C@H](CO)[C@@H](O)[C@H](O)[C@H]2O[C@H]2C[C@](C)(N)[C@H](O)[C@H](C)O2)Oc2ccc(cc2Cl)[C@H]1O [Vancomycin]
MIC change upon MRS overexpression (S. aureus RN4220): remained unchanged
MIC (S. aureus RN4220; RN4220, pYH4-MRS, +aTc inducer): 0.5 µg/mL (≈ 0.345 µM)
MIC (S. aureus RN4220; RN4220, pYH4-MRS, −aTc inducer): 0.5 µg/mL (≈ 0.345 µM)
MIC (S. aureus RN4220; [5]): 1 µg/mL (≈ 0.69 µM)
MIC (S. aureus RN4220; [6]): 1 µg/mL (≈ 0.69 µM)
